These results are taken from BindingDB's records for doi:10.1021/ml300214g (2012).

Each structure is given as a SMILES string. pIC50: −log10 of the molar value.

A short description of the assay: Inhibition of CSF1R in mouse M-NFS-60 cells assessed as inhibition of cell proliferation after 72 hrs by Celltiter-Blue assay.

Turning to `CN1C(C)(C)CC(Oc2ccc(C(=O)Nc3ccc(NC(=O)Nc4cc(C(C)(C)C)on4)cc3)nc2)CC1(C)C`, the negative logarithm of the IC50 (pIC50) was 7.30. The figure for `CCN1C(C)(C)CC(Oc2ccc(C(=O)Nc3ccc(NC(=O)Nc4cc(C(C)(C)C)on4)cc3)nc2)CC1(C)C` is 7.33; for `CC(C)(C)c1cc(NC(=O)Nc2ccc(NC(=O)c3ccc(OC4CCN(C5CC5)CC4)cn3)cc2)no1` it is 6.82. The figure for `CC(C)(C)c1cc(NC(=O)Nc2ccc(NC(=O)c3ccc(OC4CCN(C(C)(C)C)CC4)cn3)cc2)no1` is 7.19. In the case of `CC(C)N1CCC(Oc2ccc(C(=O)Nc3ccc(NC(=O)Nc4cc(C(C)(C)C)on4)cc3)nc2)CC1`, the pIC50 was 7.11. Regarding `Cc1ccc(C(=O)Nc2ccc(NC(=O)Nc3cc(C(C)(C)C)on3)cc2)nc1`, the pIC50 is 6.65. For `Cc1ccnc(C(=O)Nc2ccc(NC(=O)Nc3cc(C(C)(C)C)on3)cc2)c1`, the pIC50 was 7.19. As for `CC1(C)CC(Oc2ccc(C(=O)Nc3ccc(NC(=O)Nc4cc(C(C)(C)C)on4)cc3)nc2)CC(C)(C)N1`, the pIC50 is 7.13.
